Experimental data reported in patent publication US6740038B2, “Systems and methods for assessing vascular effects of a treatment” (New Health Sciences, Inc., priority 2000, dated 2004).

System: cerebral vessels
Details: person after first stroke, Plavix +/- calcium channel blocker
Procedure: A person with a history of hypertension experiences a first stroke in the left middle cerebral artery resulting in deficits in the right hand, leg, and some deficits in motor speech. These are the symptoms upon presentation in the neurological clinic. Transcranial Doppler analysis of all cerebral vessels is performed in addition to analyzing the common carotid artery and the internal carotid artery.
The physician considers prescription of Plavix together with a calcium channel blocker. Transcranial Doppler analysis was performed at monthly intervals. […] The physician subsequently administers a higher dose. Again, transcranial Doppler analysis is performed on all cerebral vessels.
The patient is then monitored on a monthly basis after the initial prescription of Plavix in order to determine whether vascular changes are occurring which necessitate alteration in the therapy.

For `COC(=O)[C@H](c1ccccc1Cl)N1CCc2sccc2C1` [Plavix], the auto-regulation curve (higher dose) was “left-shifts toward normal”, the pulsatility index (higher dose) was “decreases” and the “vascular dynamics of the vessel studied” value (higher dose) was “marked changes”. The “changes in the individual cerebral vessels” value (initial dose, transcranial Doppler at monthly intervals) was “no effect”.
